Experimental data from patent publication US20250049819A1, “METHODS FOR TREATING AND PREVENTING C. DIFFICILE INFECTION” (Paratek Pharmaceuticals, Inc., priority 2016, published 2025).
≈ marks a conversion by molar mass, not a printed value. Read-outs that look alike come from different tables or passages of the source.

Experiments:
[1] = test system: C. difficile strain ATCC 43596; experiment: MIC90 against the infection model strain; type: cell-based; settings: Clostridioides difficile, ATCC43596
[2] = test system: C. difficile strain ATCC 43596; experiment: Hamster model of C. difficile-associated diarrhea, survival; type: in vivo
[3] = test system: gut microflora populations; experiment: In vitro human gut model, gut microflora populations (Example 3); type: cell-based
Source text: An in vitro gut model was used to study the effects of omadacycline instillation on both normal microflora populations and C. difficile. This gut model has been validated against gut contents from sudden death victims and provides a very close simulation of bacterial activities and composition in different areas of the hindgut (Macfarlane et al., Microb. Ecol. 35, 180-7, 1998). The model consists of three vessels aligned in series, and top-fed with a complex growth medium. All three vessels are continuously stirred, anaerobically maintained at 37° C. and regulated to reflect in vivo differences, including pH, from proximal to distal colon. The three anaerobic fermentation vessels are maintained at increasing alkalinity (from pH 5.5±0.2 for vessel 1; pH 6.2±0.2 for vessel 2; and pH 6.8±0.2 for vessel 3). The increasing alkalinity in combination with the nutrient limited conditions are designed to simulate the human gut from the proximal to the distal colon. Inoculation with pooled human feces (from healthy elderly volunteers) is followed by a period of equilibration, during which bacterial populations respond to their environmental conditions and reach a steady state. At this stage, dietary ingredients, prebiotics, pathogens and/or antibiotics may be added, and the bacterial populations monitored. Specific components of the gut flora and relevant pathogens may be closely monitored and their behavior analyzed.
The gut model was inoculated with pooled fecal slurry (5 volunteers ≥60 years of age with no history of antibiotic therapy in the previous 3 months) and left for 2 weeks to allow the bacterial populations to achieve steady state. A single inoculum (˜10^7 cfu/mL) of C. difficile spores (PCR ribotype 027 strain 210) was added into vessel 1 of the gut model on day 14. One week later, on day 21, a second aliquot of C. difficile spores was added, and antibiotic instillation commenced. Omadacycline instillation (430 mg/L, once daily, for 7 days) commenced on day 21.
Gut microbiota bacterial populations and C. difficile total viable counts and spore counts were enumerated daily by culture on selective and non-selective agars. C. difficile populations were monitored in all three vessels, and all other bacterial groups (total obligate anaerobes, total facultative anaerobes, lactose fermenting enterobacteriaceae, enterococci, total clostridia, lactobacilli, bifidobacteria, B. fragilis group) were monitored in vessels 2 and 3 only. Vessel 3 is of most physiological relevance in terms of propensity to induce CDI. C. difficile total viable counts and spores counts were monitored using viable counting and a differential alcohol shock viable count on selective agars.

[4] = Elimination of an oral dose via the biliary/fecal pathway; type: in vivo
[5] = oral 50 mg/kg/day for 5 days, N=10
[6] = vessels 2 and 3, 430 mg/L once daily for 7 days
[7] = vessels 2 and 3, 430 mg/L once daily for 7 days, fell below limit of detection

With `CN(C)c1cc(CNCC(C)(C)C)c(O)c2c1C[C@H]1C[C@H]3[C@H](N(C)C)C(O)=C(C(N)=O)C(=O)[C@@]3(O)C(O)=C1C2=O` (stereo in doubt) [Omadacycline] the MIC90 ([1]; read-out: MIC90) was 0.06 mg/L (≈ 0.108 µM), the MIC90 ([1]; replicate plate A, read-out: MIC90 Plate A) was 0.06 mg/L (≈ 0.108 µM) and the MIC90 ([1]; replicate plate B, read-out: MIC90 Plate B) was 0.06 mg/L (≈ 0.108 µM). The “percent survival at day 2 post infection” value ([2]; oral 50 mg/kg/day for 5 days (clindamycin: 10 mg/kg SC pre-treatment only), N=10) was 100%, the “Median Survival” value ([2]; oral 50 mg/kg/day for 5 days (clindamycin: pre-treatment only), followed up to 21 days) was 12 days and the “percent survival by day 3” value [2, 5] was 60%. For the same molecule, the “percent survival on day 13” value [2, 5] was 40%, the “percent survival on day 16” value [2, 5] was 0% and the “time for all populations to return to steady state levels post antimicrobial exposure” value ([3]; after end of dosing) was “approximately 1 week”. For the same molecule, the Enterobacteriacea populations [3, 6] was “remained undisturbed”, the “decrease in B. fragilis group” value [3, 6] was about 3 log10 cfu/mL and the “decrease in Enterococcus spp.” value [3, 6] was about 4 log10 cfu/mL. The “decrease in Lactobacillus spp.” value [3, 6] was about 2 log10 cfu/mL, the “decline in Bifidobacteria population” value [3, 7] was about 6 log10 cfu/mL and the “decline in Clostridia population” value [3, 7] was about 6 log10 cfu/mL. The “proportion of the absorbed omadacycline eliminated in the gut (biliary/fecal elimination pathway)” value [4] was “approximately 60%”.
